Laboratory results from patent EP0807629B1, “Sulfonamido substituted chromane derivatives, method for their preparation, their use as medicaments or diagnostic agents aswell as medicaments containing them” (Aventis Pharma Deutschland GmbH, priority 1996, dated 1997).
Where two headings read alike, the source gives them in different places.

Test system: gastrischen Drüsenschläuche
Experiment: 14C-aminopyrine accumulation in isolated gastric glands (inhibition of gastric acid secretion)
Type: cell-based, Kaninchen
Settings: read-out: IC50 Inhibition der stimulierten AP-Akkumulation
Description: Methode: Die Hochdruckperfusion des […] wurde nach der Beschreibung von Berglindh und Obrink (1) und unter Anwendung einiger Modifikationen, wie sie an anderer Stelle berichtet werden (2), ausgeführt. Kaninchen (männlich und weiblich, 2 - 3 kg) wurden schmerzfrei unter Narkose durch zervikale Dislokation getötet und der Magen wie in der Literatur berichtet perfundiert (1). Die Mukosa des Magenfundus wurde mit einem Schaber entfernt und mittels einer Schere zerkleinert. Die so erhaltenen Mukosafragmente wurden mit_1 mg/ml Kollagenase in einem Medium bestehend aus 100 mM NaCl, 5 mM KCI, 0,5 mM NaH2PO4, 1 mM Na2HPO4, 1 mM CaCl2, 1,5 mM MgCl2, 20 mM NaHCO3, 20 mM HEPES, 2mg/ml Glukose und 1 mg/ml Kaninchenalbumin für 30 - 45 min bei 37°C behandelt, wobei der pH des Gemisches mit Tris-Puffer auf 7,4 eingestellt war. Die Drüsenschläuche (gastric glands) wurden durch ein Nylonnetz zur Entfernung grober Fragmente filtriert und 3 mal mit Inkubationsmedium gespült. Anschließend wurden die Drüsenschläuche im Medium in einer Konzentration von 2 - 4 mg Trockengewicht/ml suspendiert.
Als Maß für die Fähigkeit der gastrischen Drüsenschläuche zur Säurebildung wurde die Akkumulation von ^14C-Aminopyrin (^14C-AP) bestimmt (3). Hierzu wurden Proben von 1 ml Drüsenschlauchsuspension mit ^14C-AP (1 µM, 200 000 cpm) und der zu testenden Verbindung inkubiert und für 20 - 30 min bei 37°C in einem schüttelnden Wasserbad behandelt. Anschließend wurden Histamin (100 µM), dbcAMP (0.3 oder 1 mM) oder Carbachol (100 µM) zugegeben, gefolgt von einer zweiten Inkubationsdauer von 30 - 45 min.. Die Inkubation wurde anschließend beendet durch Zentrifugiren der Proben für eine halbe Minute. Die überstehende Flüssigkeit wurde entfernt und die erhaltenen pellets in 1 ml NaOH gelöst. Proben der Pellets und des Flüssigkeitsüberstands wurden im Szintillationszähler gemessen. Das AP-Verhältnis der intraglandulären und extraglandulären Radioaktivität wurde nach Sack und Spenney (4) berechnet. Alle Bestimmungen wurden dreifach durchgeführt.

IC50 (after Carbachol stimulation (100 µM)): 5 µM
IC50 (after Histamin stimulation (100 µM)): 20 µM
IC50 (after dbcAMP stimulation (0.3 or 1 mM)): 20 µM
SMILES: CCS(=O)(=O)N(C)[C@@H]1c2cc(C#N)ccc2OC(C)(C)[C@H]1O (relative stereo) [293B, trans-6-Cyano-4-(N-ethylsulfonyl-N-methylamino)-3-hydroxy-2,2-dimethyl-chroman]
